In patent publication US7645595B2, “Method of production of artificial skin” (Shiseido Company, Ltd., priority 2000, dated 2010):

Columns and labels:
[1] = test system: artificial skin (skin model: contracted collagen gel with human dermal fibroblasts plus epidermal keratinocytes); test: Artificial skin culture with matrix metalloproteinase inhibitor: basement membrane formation seen in cross-section (Example 1, FIG. 1); format: cell-based; conditions: cultured 2 weeks, versus control without inhibitor
Method: Collagen gel was obtained by preparing 10 ml of a collagen solution of suspended fibroblasts (0.3 to 1×10^5 cells/ml) originating in human dermis (product I-AC of Koken Co., Ltd. was used for the collagen) on ice followed by gelling the collagen at 37° C. in a 60 mm Petri dish. Next, the gel was peeled from the walls of the Petri dish and the collagen gel was contracted in a CO2 incubator.
This contracted collagen gel equivalent to dermis was placed on a metal mesh and a glass ring (inner diameter: 12 mm) was placed over this gel. 0.4 ml of a suspension of epidermal keratinocytes (1×10^6/ml) (mixed medium of KGM-DMEM containing 5% fetal calf serum (1:1)) were placed inside the glass ring to prevent leakage of liquid. After adhering keratinocytes in a CO2 incubator overnight, the ring was removed on the following day.
After inoculating the epidermic cells, the medium was changed to that containing either (1) 10 μM CGS27023A (matrix metalloproteinase inhibitor) or (2) 300 μM MMP-inhibitor (p-NH2-Bz-Gly-Pro-D-Leu-D-Ala-NHOH (FN-437) (BBRC, 1994, 199, p. 1442-1446) (acquired from Cabbiochem. Novabiochem Corporation) (matrix metalloproteinase inhibitor)) starting in the first week, and then replaced with medium containing the same type and same concentration of matrix metalloproteinase inhibitor every 2-3 days after that and cultured for 2 weeks. […]

[2] = test system: Skin Model (artificial skin); basement membrane components laminin 5, type IV collagen, type VII collagen; test: Artificial skin culture with MMP inhibitor and matrix protein production promoting agent: H&E staining and immunostaining for LN5, IVC, VIIC (Example 2, Table 1, FIG. 2-4); format: cell-based, human; conditions: CGS27023A 10 μM, TGFa/TGFb1 10 ng/ml, versus control
Method: Although the same method as Example 1 was repeated, the following substances were used as test substances. • (1) 10 μM matrix metalloproteinase inhibitor CGS27023A only; • (2) 10 μM matrix metalloproteinase inhibitor CGS27023A and 10 ng/ml of matrix […] protein production promoting agent, Transforming Growth Factor α (TGFa); • (3) 10 μM matrix metalloproteinase inhibitor CGS27023A and 10 ng/ml of matrix protein production promoting agent, Transforming Growth Factor β1 (TGFb1); • (4) 10 μM matrix metalloproteinase inhibitor CGS27023A, 10 ng/ml of matrix protein production promoting agent, Transforming Growth Factor α (TGFa) and 10 ng/ml of Transforming Growth Factor β1 (TGFb1); and • (5) culturing of a control to which none of the above were added. The formed artificial skin was stained by hematoxylin-eosin (H & E) and immunostaining (using anti-laminin 5 (LN5) antibody, anti-type IV collagen (IVC) antibody, and anti-type VII collagen (VIIC) antibody). Culturing was carried out in the same manner as above using the following plant extracts instead of the above matrix metalloproteinase inhibitor CGS27023A.

Row | Compound | Promotion of basement membrane formation (FIG. 1) ([1]; 10 μM in medium) | Adhesion between epidermis and dermis [2] | Promotion of basement membrane formation (FIG. 1) ([1]; 300 μM in medium)
1 | COc1ccc(S(=O)(=O)N(Cc2cccnc2)[C@@H](C(=O)NO)C(C)C)cc1.Cl [CGS27023A, N-hydroxy-2(R)-[[(4-methoxyphenyl)sulfonyl](3-picolyl)amino]-3-methylbutanamide hydrochloride] | promotion of basement membrane formation was clearly observed | adhesion between the epidermis and dermis was clear | –
2 | p-NH2-Bz-Gly-Pro-D-Leu-Ala-NHOH [MMP-inhibitor] | – | – | promotion of basement membrane formation was clearly observed
